Results published in paper PMC9090415, “Discovery of small molecule inhibitors of Plasmodium falciparum apicoplast DNA polymerase” (Journal of Enzyme Inhibition and Medicinal Chemistry, 2022).
pIC50: −log10 of the molar value.

Target: P. falciparum apicoplast DNA polymerase (Pf-apPOL) (Plasmodium falciparum, UniProt Q8ILY1)
Assay: Fluorescence-based high-throughput DNA polymerase assay (molecular beacon), primary screen and dose-response;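 for % inhibition ApPOL 90': test concentration in µM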;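 for % inhibition apPOL 180': test concentration in µM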
Type: biochemical
Procedure, shortened: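 Single-point screening used 10 µM compound with 20 nM polymerase, 20 nM hairpin substrate and 6 µM dNTPs for 90 min at 25 °C. Confirmatory titrations (2.5–80 µM) followed fluorescence at three times, and IC50 was derived from a fit including a cooperativity term n.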

[1] = primary screen value of the 186 hits; unit not given; 90 min, 10 µM

Sequence of P. falciparum apicoplast DNA polymerase (Pf-apPOL) (Q8ILY1 entry or part of it): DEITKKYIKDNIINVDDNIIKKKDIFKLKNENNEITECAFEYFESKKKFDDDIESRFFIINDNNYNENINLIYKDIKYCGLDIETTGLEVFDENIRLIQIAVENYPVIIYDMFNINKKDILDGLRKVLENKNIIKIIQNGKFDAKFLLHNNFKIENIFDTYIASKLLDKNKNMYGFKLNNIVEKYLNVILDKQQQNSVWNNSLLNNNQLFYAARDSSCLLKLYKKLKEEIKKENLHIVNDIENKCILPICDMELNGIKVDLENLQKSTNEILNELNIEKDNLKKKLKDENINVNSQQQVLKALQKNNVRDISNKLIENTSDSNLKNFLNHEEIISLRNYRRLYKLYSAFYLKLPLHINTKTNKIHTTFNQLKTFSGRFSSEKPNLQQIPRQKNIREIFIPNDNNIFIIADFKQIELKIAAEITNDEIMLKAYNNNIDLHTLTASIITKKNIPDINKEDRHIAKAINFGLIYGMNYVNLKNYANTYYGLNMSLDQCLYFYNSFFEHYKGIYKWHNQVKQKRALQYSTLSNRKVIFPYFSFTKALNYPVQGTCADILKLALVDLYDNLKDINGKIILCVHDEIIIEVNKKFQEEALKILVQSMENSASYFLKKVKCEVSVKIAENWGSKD

OC(C#Cc1ccccc1)c1ccco1 (stereo not shown) [Molecule 95, OC(c1ccco1)C#Cc1ccccc1]
% inhibition Apo pol 10' (DRC-1; 10'; concentration 2.5): 31.3113%
% inhibition Apo pol 10' (DRC-1; 10'; concentration 5): 57.2957%
% inhibition Apo pol 10' (DRC-1; 10'; concentration 10): 77.3144%
% inhibition Apo pol 10' (DRC-1; 10'; concentration 20): 80.9257%
% inhibition Apo pol 10' (DRC-1; 10'; concentration 40): 79.5386%
% inhibition Apo pol 10' (DRC-1; 10'; concentration 80): 69.6909%
% inhibition Apol 90' (DRC-1; 90'; concentration 2.5): 17.4442%
% inhibition Apol 90' (DRC-1; 90'; concentration 5): 42.0165%
% inhibition Apol 90' (DRC-1; 90'; concentration 10): 68.6484%
% inhibition Apol 90' (DRC-1; 90'; concentration 20): 80.4558%
% inhibition Apol 90' (DRC-1; 90'; concentration 40): 83.9315%
% inhibition Apol 90' (DRC-1; 90'; concentration 80): 80.7801%
% inhibition apPOL 180' (DRC-1; 180'; concentration 2.5): 5.809%
% inhibition apPOL 180' (DRC-1; 180'; concentration 5): 25.3082%
% inhibition apPOL 180' (DRC-1; 180'; concentration 10): 55.1933%
% inhibition apPOL 180' (DRC-1; 180'; concentration 20): 73.4768%
% inhibition apPOL 180' (DRC-1; 180'; concentration 40): 83.0192%
% inhibition apPOL 180' (DRC-1; 180'; concentration 80): 83.0007%
% inhibition Apol 40' (DRC-2, 40', concentration 10 (unit not given)): 60%
% inhibition Apol 40' (DRC-2, 40', concentration 20 (unit not given)): 62%
% inhibition ApPOL 90' (DRC-2, 90', concentration 10 (unit not given)): 62%
% inhibition ApPOL 90' (DRC-2, 90', concentration 20 (unit not given)): 67%
% inhibition ApPOL 90' (DRC-2, 90', concentration 40 (unit not given)): 66%
% inhibition ApPOL 90' (DRC-2, 90', concentration 80 (unit not given)): 60%
% inhibition apPOL 180' (DRC-2, 180', concentration 20 (unit not given)): 66%
% inhibition apPOL 180' (DRC-2, 180', concentration 80 (unit not given)): 67%
% inhibition Apo pol 5' (DRC-2; 5'; concentration 2.5): 14%
% inhibition Apo pol 5' (DRC-2; 5'; concentration 5): 32%
% inhibition Apo pol 5' (DRC-2; 5'; concentration 10): 39%
% inhibition Apo pol 5' (DRC-2; 5'; concentration 20): 34%
% inhibition Apo pol 5' (DRC-2; 5'; concentration 40): 22%
% inhibition Apo pol 5' (DRC-2; 5'; concentration 80): -5%
% inhibition Apol 40' (DRC-2; 40'; concentration 2.5): 15%
% inhibition Apol 40' (DRC-2; 40'; concentration 5): 44%
% inhibition Apol 40' (DRC-2; 40'; concentration 10): 60%
% inhibition Apol 40' (DRC-2; 40'; concentration 20): 62%
% inhibition Apol 40' (DRC-2; 40'; concentration 40): 59%
% inhibition Apol 40' (DRC-2; 40'; concentration 80): 48%
% inhibition ApPOL 90' (DRC-2; 90'; concentration 2.5): 12%
% inhibition ApPOL 90' (DRC-2; 90'; concentration 5): 41%
% inhibition ApPOL 90' (DRC-2; 90'; concentration 10): 62%
% inhibition ApPOL 90' (DRC-2; 90'; concentration 20): 67%
% inhibition ApPOL 90' (DRC-2; 90'; concentration 40): 66%
% inhibition ApPOL 90' (DRC-2; 90'; concentration 80): 60%
% inhibition apPOL 180' (DRC-2; 180'; concentration 2.5): 4.25%
% inhibition apPOL 180' (DRC-2; 180'; concentration 5): 30%
% inhibition apPOL 180' (DRC-2; 180'; concentration 10): 58%
% inhibition apPOL 180' (DRC-2; 180'; concentration 20): 66%
% inhibition apPOL 180' (DRC-2; 180'; concentration 40): 71%
% inhibition apPOL 180' (DRC-2; 180'; concentration 80): 67%
DNA Pol [1]: 70
DNA Pol (primary screen value, head "DNA Pol", unit not given; 90 min, 10 µM): 70

Cc1ccc(C2=N/C(=C\c3ccc(I)o3)C(=O)O2)cc1[N+](=O)[O-] [KU0073890]
% inhibition Apo pol 10' (DRC-1; concentration 2.5; 10'): 15.7556%
% inhibition Apol 90' (DRC-1; concentration 2.5; 90'): 9.731%
% inhibition apPOL 180' (DRC-1; concentration 2.5; 180'): 6.694%
% inhibition Apo pol 10' (DRC-1; concentration 5; 10'): 16.0721%
% inhibition Apol 90' (DRC-1; concentration 5; 90'): 7.063%
% inhibition apPOL 180' (DRC-1; concentration 5; 180'): 1.084%
% inhibition Apo pol 10' (DRC-1; concentration 10; 10'): 45.023%
% inhibition Apol 90' (DRC-1; concentration 10; 90'): 27.25%
% inhibition apPOL 180' (DRC-1; concentration 10; 180'): 14.7198%
% inhibition Apo pol 10' (DRC-1; concentration 20; 10'): 76.1272%
% inhibition Apol 90' (DRC-1; concentration 20; 90'): 60.0756%
% inhibition apPOL 180' (DRC-1; concentration 20; 180'): 43.2832%
% inhibition Apo pol 10' (DRC-1; concentration 40; 10'): 86.9883%
% inhibition Apol 90' (DRC-1; concentration 40; 90'): 86.9491%
% inhibition apPOL 180' (DRC-1; concentration 40; 180'): 82.7565%
% inhibition Apo pol 10' (DRC-1; concentration 80 (unit not given); 10'): 80.4424%
% inhibition Apol 90' (DRC-1; concentration 80; 90'): 89.2693%
% inhibition apPOL 180' (DRC-1; concentration 80; 180'): 91.2118%
% inhibition Apo pol 5' (DRC-2; 5'; concentration 2.5): 19%
% inhibition Apol 40' (DRC-2; 40'; concentration 2.5): 19%
% inhibition ApPOL 90' (DRC-2; 90'; concentration 2.5): 17%
% inhibition ApPOL 90' (DRC-2; 90'; concentration 40): 75%
% inhibition ApPOL 90' (DRC-2; 90'; concentration 80): 75%
% inhibition apPOL 180' (DRC-2; 180'; concentration 5): 17%
% inhibition Apo pol 5' (DRC-2; concentration 2.5; 5'): 19%
% inhibition Apol 40' (DRC-2; concentration 2.5; 40'): 19%
% inhibition ApPOL 90' (DRC-2; concentration 2.5; 90'): 17%
% inhibition apPOL 180' (DRC-2; concentration 2.5; 180'): 11%
% inhibition Apo pol 5' (DRC-2; concentration 5; 5'): 35%
% inhibition Apol 40' (DRC-2; concentration 5; 40'): 32%
% inhibition ApPOL 90' (DRC-2; concentration 5; 90'): 29%
% inhibition apPOL 180' (DRC-2; concentration 5; 180'): 17%
% inhibition Apo pol 5' (DRC-2; concentration 10; 5'): 44%
% inhibition Apol 40' (DRC-2; concentration 10; 40'): 42%
% inhibition ApPOL 90' (DRC-2; concentration 10; 90'): 38%
% inhibition apPOL 180' (DRC-2; concentration 10; 180'): 25%
% inhibition Apo pol 5' (DRC-2; concentration 20; 5'): 55%
% inhibition Apol 40' (DRC-2; concentration 20; 40'): 62%
% inhibition ApPOL 90' (DRC-2; concentration 20; 90'): 60%
% inhibition apPOL 180' (DRC-2; concentration 20; 180'): 51%
% inhibition Apo pol 5' (DRC-2; concentration 40; 5'): 58%
% inhibition Apol 40' (DRC-2; concentration 40; 40'): 73%
% inhibition ApPOL 90' (DRC-2; concentration 40; 90'): 75%
% inhibition apPOL 180' (DRC-2; concentration 40; 180'): 77%
% inhibition Apo pol 5' (DRC-2; concentration 80; 5'): 49%
% inhibition Apol 40' (DRC-2; concentration 80; 40'): 70%
% inhibition ApPOL 90' (DRC-2; concentration 80; 90'): 75%
% inhibition apPOL 180' (DRC-2; concentration 80; 180'): 80%
DNA Pol [1]: 42
DNA Pol (primary screen value; head prints only 'DNA Pol'; 90 min, 10 µM): 42

COc1ccc(NC(=O)Cn2nc3c(cc2=O)CCC3)cc1Cl [Molecule 4]
pIC50 (supplemental file 2, sheet IC50 nontoxic compounds; Pf-apPOL): 5.28
